Source: patent US6825172B2, “3-descladinosyl-6-O-carbamoyl and 6-O-carbonoyl macrolide antibacterial agents” (Janssen Pharmaceutica, NV, priority 2002, dated 2004)
≈ marks a conversion by molar mass, not a printed value.

Legend:
Experiment in all cases: MIC, microdilution broth method (NCCLS)
Type in all cases: cell-based
E. coli OC2605 = conditions: Escherichia coli, Table 2, 3,6-Dicarbamoyl Macrolide Derivatives, read-out: MIC Values, A: E. coil OC2605
Method in brief: (§1)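 NCCLS M7-A4 broth microdilution: two-fold drug dilutions in cation-adjusted Mueller-Hinton broth, inoculum approximately 5×10^4 CFU/well. Trays incubated at 35 °C for 16-20 hours. MIC read by comparing growth to compound-free growth controls.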

E. faecalis ATCC29212 = conditions: Enterococcus faecalis, Table 2, 3,6-Dicarbamoyl Macrolide Derivatives, read-out: MIC Values, C: E. faecalis ATCC29212
Method in brief: as §1

H. influenzae ATCC49247 = conditions: Haemophilus influenzae, Table 2, 3,6-Dicarbamoyl Macrolide Derivatives, read-out: MIC Values, E: H. influenzae ATCC49247
Method in brief: as §1

S. aureus ATCC29213 = conditions: Staphylococcus aureus, Table 2, 3,6-Dicarbamoyl Macrolide Derivatives, read-out: MIC Values, B: S. aureus ATCC29213
Method in brief: as §1

S. pneumoniae ATCC49619 = conditions: Streptococcus pneumoniae, Table 2, 3,6-Dicarbamoyl Macrolide Derivatives, read-out: MIC Values, D: S. pneumoniae ATCC49619
Method in brief: as §1

Compound	MIC (E. coli OC2605) [µg/mL]	MIC (E. faecalis ATCC29212) [µg/mL]	MIC (H. influenzae ATCC49247) [µg/mL]	MIC (S. aureus ATCC29213) [µg/mL]	MIC (S. pneumoniae ATCC49619) [µg/mL]
CC[C@H]1OC(=O)[C@H](C)[C@@H](OC(=O)N2CCOCC2)[C@H](C)[C@@H](O[C@@H]2O[C@H](C)C[C@H](N(C)C)[C@H]2O)[C@](C)(OC(=O)NC/C=C/c2ccc(-c3ncccn3)cc2)C[C@@H](C)C(=O)[C@H](C)[C@H]2NC(=O)O[C@@]21C [Compound 63]	> 16	0.5 (≈ 0.526 µM)	4 (≈ 4.21 µM)	0.5 (≈ 0.526 µM)	0.06 (≈ 0.0631 µM)
CC[C@H]1OC(=O)[C@H](C)[C@@H](OC(=O)N2CCCCC2)[C@H](C)[C@@H](O[C@@H]2O[C@H](C)C[C@H](N(C)C)[C@H]2O)[C@](C)(OC(=O)NC/C=C/c2ccc(-c3ncccn3)cc2)C[C@@H](C)C(=O)[C@H](C)[C@H]2NC(=O)O[C@@]21C [Compound 64]	> 16	0.5 (≈ 0.527 µM)	8 (≈ 8.43 µM)	1 (≈ 1.05 µM)	0.06 (≈ 0.0632 µM)
CC[C@H]1OC(=O)[C@H](C)[C@@H](OC(=O)N(CC)c2cccnc2)[C@H](C)[C@@H](O[C@@H]2O[C@H](C)C[C@H](N(C)C)[C@H]2O)[C@](C)(OC(=O)NC/C=C/c2ccc(-c3ncccn3)cc2)C[C@@H](C)C(=O)[C@H](C)[C@H]2NC(=O)O[C@@]21C [Compound 65]	> 16	1 (≈ 1.01 µM)	8 (≈ 8.11 µM)	1 (≈ 1.01 µM)	0.25 (≈ 0.254 µM)
CC[C@H]1OC(=O)[C@H](C)[C@@H](OC(=O)N(CC)CCO)[C@H](C)[C@@H](O[C@@H]2O[C@H](C)C[C@H](N(C)C)[C@H]2O)[C@](C)(OC(=O)NC/C=C/c2ccc(-c3ncccn3)cc2)C[C@@H](C)C(=O)[C@H](C)[C@H]2NC(=O)O[C@@]21C [Compound 66]	> 16	2 (≈ 2.1 µM)	16 (≈ 16.8 µM)	4 (≈ 4.2 µM)	0.25 (≈ 0.262 µM)
CC[C@H]1OC(=O)[C@H](C)[C@@H](OC(=O)N2Cc3cccnc3C2)[C@H](C)[C@@H](O[C@@H]2O[C@H](C)C[C@H](N(C)C)[C@H]2O)[C@](C)(OC(=O)NC/C=C/c2ccc(-c3ncccn3)cc2)C[C@@H](C)C(=O)[C@H](C)[C@H]2NC(=O)O[C@@]21C [Compound 67]	> 16	0.5 (≈ 0.508 µM)	8 (≈ 8.13 µM)	0.5 (≈ 0.508 µM)	0.06 (≈ 0.061 µM)
